{"source": "patent US8987267B2", "about": "“2-substituted-8-alkyl-7-OXO-7,8-dihydropyrido[2,3-D]pyrimidine-6-carbonitriles and uses thereof in treating proliferative disorders” (Temple University—of the Commonwealth System of Higher …, priority 2010, dated 2015)", "format_in_all_cases": "biochemical", "key": {"[1]": {"target": "T1, His-tagged full length ARK5 (Homo sapiens, UniProt O60285)", "T1 construct": "20 ng His-tagged full length ARK5 (Invitrogen PV4127); His; purchased Invitrogen PV4127", "T1 sequence (O60285 1-661)": "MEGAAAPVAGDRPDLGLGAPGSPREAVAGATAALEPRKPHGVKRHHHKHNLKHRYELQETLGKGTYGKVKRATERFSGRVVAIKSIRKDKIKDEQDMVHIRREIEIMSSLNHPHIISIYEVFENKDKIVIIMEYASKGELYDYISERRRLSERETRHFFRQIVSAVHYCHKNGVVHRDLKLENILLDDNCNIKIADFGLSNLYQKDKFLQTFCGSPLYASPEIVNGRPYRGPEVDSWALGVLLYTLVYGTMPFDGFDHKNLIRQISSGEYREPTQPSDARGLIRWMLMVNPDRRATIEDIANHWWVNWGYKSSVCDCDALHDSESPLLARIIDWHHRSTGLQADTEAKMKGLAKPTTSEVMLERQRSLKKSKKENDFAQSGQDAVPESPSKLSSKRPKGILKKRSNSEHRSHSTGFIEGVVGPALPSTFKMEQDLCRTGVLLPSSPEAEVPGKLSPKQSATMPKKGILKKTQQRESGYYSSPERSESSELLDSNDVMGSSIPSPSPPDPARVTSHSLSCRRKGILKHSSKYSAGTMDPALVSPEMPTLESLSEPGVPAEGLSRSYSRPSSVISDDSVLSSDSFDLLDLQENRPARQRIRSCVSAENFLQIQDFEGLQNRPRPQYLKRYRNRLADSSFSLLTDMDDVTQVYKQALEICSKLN", "test": "ARK5 Kinase Assay (ARK5 Inhibition Assay)", "conditions": "CHKtide substrate, 1 μM ATP", "experimental": "20 ng His-tagged full length ARK5 (Invitrogen PV4127), a protein kinase, was diluted into kinase buffer (25 mM HEPES pH 7.5, 10 mM MgCl2, 0.5 mM EGTA, 0.5 mM Na3V04, 5 mM β Glycerophosphate, 2.5 mM DTT, 0.01% Triton X-100) and incubated with the indicated concentration of a compound of Table 3 at room temperature for 30 minutes. The kinase reactions were then initiated by the addition of 1 μg (3.28 μM) CHKtide substrate peptide (Upstate 12-414), 1 μM ATP and 10 μCi γ^32 P-ATP. The reactions were incubated at 30° C. for 10 minutes.\nSubsequently, the reactions were stopped by adding 3% phosphoric acid. A 10 μl aliquot was then transferred to an appropriate area of a p30 filtermat. The filtermat was allowed to dry for 20 minutes at room temperature and then washed three times with 75 mM phosphoric acid and twice with methanol. The filtermat was then dried for 20 minutes at room temperature. The filtermat was then exposed to X ray film or read in a scintillation counter. The scintillation counting values were plotted as function of log drug concentration using Prism 4 Graph pad software and IC50 values determined by plotting sigmoidal non-linear regression curves with variable slope."}, "[2]": {"target": "ABL2/ARG (Homo sapiens, UniProt P42684)", "test": "Kinase inhibition panel", "conditions": "10 μM ATP", "experimental": "(§1) The compounds in Table 4 were tested for the ability to inhibit the kinase activity of the listed protein kinases."}, "[3]": {"target": "CDK2/cyclinE (Homo sapiens, UniProt P24941)", "test": "Kinase inhibition panel", "conditions": "10 μM ATP", "experimental": "as §1"}, "[4]": {"target": "EphB1 (Homo sapiens, UniProt P54762)", "sequence (P54762 18-984, species assumed)": "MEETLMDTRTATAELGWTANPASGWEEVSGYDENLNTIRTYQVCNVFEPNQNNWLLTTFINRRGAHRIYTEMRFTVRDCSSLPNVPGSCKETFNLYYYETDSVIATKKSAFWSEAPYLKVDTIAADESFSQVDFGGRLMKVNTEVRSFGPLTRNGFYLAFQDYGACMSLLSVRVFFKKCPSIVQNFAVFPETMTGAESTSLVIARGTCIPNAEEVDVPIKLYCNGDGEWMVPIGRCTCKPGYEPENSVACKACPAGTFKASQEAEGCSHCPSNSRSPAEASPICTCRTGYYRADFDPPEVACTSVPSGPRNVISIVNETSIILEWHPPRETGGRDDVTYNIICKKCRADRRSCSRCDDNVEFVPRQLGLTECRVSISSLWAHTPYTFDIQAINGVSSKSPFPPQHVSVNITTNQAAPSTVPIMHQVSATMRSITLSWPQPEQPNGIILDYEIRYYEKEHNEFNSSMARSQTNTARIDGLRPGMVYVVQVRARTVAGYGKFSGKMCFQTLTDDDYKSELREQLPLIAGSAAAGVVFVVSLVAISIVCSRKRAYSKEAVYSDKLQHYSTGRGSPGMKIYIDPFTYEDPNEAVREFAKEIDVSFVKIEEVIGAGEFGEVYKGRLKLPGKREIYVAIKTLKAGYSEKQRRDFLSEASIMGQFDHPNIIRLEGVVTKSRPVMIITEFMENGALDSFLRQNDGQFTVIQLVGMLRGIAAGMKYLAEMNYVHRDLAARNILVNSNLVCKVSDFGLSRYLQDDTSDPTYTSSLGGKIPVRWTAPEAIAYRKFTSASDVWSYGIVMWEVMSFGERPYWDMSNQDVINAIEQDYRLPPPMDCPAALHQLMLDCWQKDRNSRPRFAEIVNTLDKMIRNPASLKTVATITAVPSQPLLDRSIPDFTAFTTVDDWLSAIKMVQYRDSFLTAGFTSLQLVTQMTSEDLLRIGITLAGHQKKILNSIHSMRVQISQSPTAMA", "test": "Kinase inhibition panel", "conditions": "10 μM ATP", "experimental": "as §1"}, "[5]": {"target": "FGFR1 (Homo sapiens, UniProt P11362)", "test": "Kinase inhibition panel", "conditions": "10 μM ATP", "experimental": "as §1"}, "[6]": {"target": "FGFR3 (Homo sapiens, UniProt P22607)", "test": "Kinase inhibition panel", "conditions": "10 μM ATP", "experimental": "as §1"}, "[7]": {"target": "FMS (Homo sapiens, UniProt P07333)", "sequence (P07333 20-972, species assumed)": "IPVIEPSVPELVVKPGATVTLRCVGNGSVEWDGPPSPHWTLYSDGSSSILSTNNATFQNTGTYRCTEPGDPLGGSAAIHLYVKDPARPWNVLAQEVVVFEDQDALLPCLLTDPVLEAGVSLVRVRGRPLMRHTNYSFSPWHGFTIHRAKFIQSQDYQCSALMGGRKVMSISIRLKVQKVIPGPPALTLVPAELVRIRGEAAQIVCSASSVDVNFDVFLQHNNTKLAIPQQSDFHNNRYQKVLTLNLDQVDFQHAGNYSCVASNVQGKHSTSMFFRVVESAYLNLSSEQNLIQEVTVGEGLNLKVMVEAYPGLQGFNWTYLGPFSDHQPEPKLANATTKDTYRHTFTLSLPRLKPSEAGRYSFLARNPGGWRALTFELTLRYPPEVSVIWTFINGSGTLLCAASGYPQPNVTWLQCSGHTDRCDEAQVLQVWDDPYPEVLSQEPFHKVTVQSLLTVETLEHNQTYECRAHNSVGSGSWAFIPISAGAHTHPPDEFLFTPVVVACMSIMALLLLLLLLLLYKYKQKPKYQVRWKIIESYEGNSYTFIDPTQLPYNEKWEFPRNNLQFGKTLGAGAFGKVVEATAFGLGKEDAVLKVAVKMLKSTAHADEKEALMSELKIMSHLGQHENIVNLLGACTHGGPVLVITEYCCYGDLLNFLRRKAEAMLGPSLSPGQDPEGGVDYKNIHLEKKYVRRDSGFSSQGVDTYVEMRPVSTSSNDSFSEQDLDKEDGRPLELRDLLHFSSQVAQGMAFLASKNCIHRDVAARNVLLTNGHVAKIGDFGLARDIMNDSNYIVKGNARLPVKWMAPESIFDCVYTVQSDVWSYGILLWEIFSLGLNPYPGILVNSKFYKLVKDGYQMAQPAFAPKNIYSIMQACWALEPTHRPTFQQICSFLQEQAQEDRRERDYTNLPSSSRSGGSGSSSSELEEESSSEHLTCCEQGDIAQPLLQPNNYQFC", "test": "Kinase inhibition panel", "conditions": "10 μM ATP", "experimental": "as §1"}, "[8]": {"target": "LCK (Homo sapiens, UniProt P06239)", "test": "Kinase inhibition panel", "conditions": "10 μM ATP", "experimental": "as §1"}, "[9]": {"target": "PAK3 (Homo sapiens, UniProt O75914)", "test": "Kinase inhibition panel", "conditions": "10 μM ATP", "experimental": "as §1"}, "[10]": {"target": "SNARK/NUAK2 (Homo sapiens, UniProt Q9H093)", "test": "Kinase inhibition panel", "conditions": "10 μM ATP", "experimental": "as §1"}, "[11]": {"target": "c-Src (Homo sapiens, UniProt P12931)", "test": "Kinase inhibition panel", "conditions": "10 μM ATP", "experimental": "as §1"}, "[12]": {"target": "c-Kit (Homo sapiens, UniProt P10721)", "test": "Kinase inhibition panel", "conditions": "10 μM ATP"}, "[13]": {"target": "CDK6/cyclinD3 (Homo sapiens, UniProt Q00534)", "test": "Kinase inhibition panel", "conditions": "10 μM ATP"}, "[14]": {"target": "CDK7/cyclinH/MNAT1 (Homo sapiens, UniProt P50613)", "sequence (P50613 whole entry, species assumed)": "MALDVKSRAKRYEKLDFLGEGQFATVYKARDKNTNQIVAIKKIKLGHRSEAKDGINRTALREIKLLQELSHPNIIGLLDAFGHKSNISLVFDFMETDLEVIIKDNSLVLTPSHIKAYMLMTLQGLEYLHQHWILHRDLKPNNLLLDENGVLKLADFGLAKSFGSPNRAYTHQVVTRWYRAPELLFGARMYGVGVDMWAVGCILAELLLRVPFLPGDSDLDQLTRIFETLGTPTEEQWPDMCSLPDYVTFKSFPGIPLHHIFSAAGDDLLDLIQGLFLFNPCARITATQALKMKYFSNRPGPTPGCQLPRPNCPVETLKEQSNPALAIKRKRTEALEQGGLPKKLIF", "sequence (P51946 whole entry partner, species assumed)": "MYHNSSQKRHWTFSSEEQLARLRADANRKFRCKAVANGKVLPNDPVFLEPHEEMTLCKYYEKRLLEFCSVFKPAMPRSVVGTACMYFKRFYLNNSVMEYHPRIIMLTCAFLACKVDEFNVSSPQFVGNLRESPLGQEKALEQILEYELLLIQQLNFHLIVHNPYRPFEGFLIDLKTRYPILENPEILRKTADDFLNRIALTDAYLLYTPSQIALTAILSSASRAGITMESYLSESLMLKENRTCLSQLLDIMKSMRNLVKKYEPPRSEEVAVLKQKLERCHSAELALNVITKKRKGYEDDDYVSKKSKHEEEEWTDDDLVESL", "sequence (P51948 whole entry partner, species assumed)": "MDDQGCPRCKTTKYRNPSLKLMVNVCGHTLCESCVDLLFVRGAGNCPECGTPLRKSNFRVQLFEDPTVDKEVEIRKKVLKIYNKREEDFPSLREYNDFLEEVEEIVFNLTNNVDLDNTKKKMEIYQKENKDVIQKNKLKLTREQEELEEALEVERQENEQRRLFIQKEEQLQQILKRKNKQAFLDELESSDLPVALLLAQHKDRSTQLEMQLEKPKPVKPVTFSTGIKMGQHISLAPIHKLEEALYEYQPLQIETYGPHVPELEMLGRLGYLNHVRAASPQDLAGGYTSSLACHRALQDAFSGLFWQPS", "test": "Kinase inhibition panel", "conditions": "10 μM ATP"}, "[15]": {"target": "EPHA2 (Homo sapiens, UniProt P29317)", "test": "Kinase inhibition panel", "conditions": "10 μM ATP"}, "[16]": {"target": "EphB2/HEK5 (Homo sapiens, UniProt P29323)", "test": "Kinase inhibition panel", "conditions": "10 μM ATP"}, "[17]": {"target": "FGFR2 (Homo sapiens, UniProt P21802)", "sequence (P21802 22-821, species assumed)": "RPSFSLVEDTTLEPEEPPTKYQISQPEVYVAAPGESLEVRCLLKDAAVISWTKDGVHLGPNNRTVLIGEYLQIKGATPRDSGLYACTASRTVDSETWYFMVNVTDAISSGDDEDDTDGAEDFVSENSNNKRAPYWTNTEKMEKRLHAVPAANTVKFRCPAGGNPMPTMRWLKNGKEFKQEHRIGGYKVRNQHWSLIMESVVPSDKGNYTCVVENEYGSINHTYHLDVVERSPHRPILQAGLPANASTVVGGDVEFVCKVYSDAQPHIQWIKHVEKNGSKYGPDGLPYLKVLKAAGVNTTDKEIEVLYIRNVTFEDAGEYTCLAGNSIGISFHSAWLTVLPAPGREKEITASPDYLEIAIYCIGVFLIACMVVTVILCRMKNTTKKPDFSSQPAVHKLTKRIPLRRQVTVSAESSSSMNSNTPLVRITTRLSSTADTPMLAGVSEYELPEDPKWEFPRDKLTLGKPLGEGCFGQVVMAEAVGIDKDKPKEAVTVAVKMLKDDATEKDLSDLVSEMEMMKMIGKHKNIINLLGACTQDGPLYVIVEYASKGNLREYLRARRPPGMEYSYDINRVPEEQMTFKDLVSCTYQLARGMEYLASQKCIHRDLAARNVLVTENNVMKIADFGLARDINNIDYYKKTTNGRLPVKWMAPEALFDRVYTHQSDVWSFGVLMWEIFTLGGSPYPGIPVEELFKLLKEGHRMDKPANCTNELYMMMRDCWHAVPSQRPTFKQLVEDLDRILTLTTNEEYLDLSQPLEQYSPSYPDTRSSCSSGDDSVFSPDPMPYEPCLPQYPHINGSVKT", "test": "Kinase inhibition panel", "conditions": "10 μM ATP"}, "[18]": {"target": "FGFR4 (Homo sapiens, UniProt P22455)", "sequence (P22455 22-802, species assumed)": "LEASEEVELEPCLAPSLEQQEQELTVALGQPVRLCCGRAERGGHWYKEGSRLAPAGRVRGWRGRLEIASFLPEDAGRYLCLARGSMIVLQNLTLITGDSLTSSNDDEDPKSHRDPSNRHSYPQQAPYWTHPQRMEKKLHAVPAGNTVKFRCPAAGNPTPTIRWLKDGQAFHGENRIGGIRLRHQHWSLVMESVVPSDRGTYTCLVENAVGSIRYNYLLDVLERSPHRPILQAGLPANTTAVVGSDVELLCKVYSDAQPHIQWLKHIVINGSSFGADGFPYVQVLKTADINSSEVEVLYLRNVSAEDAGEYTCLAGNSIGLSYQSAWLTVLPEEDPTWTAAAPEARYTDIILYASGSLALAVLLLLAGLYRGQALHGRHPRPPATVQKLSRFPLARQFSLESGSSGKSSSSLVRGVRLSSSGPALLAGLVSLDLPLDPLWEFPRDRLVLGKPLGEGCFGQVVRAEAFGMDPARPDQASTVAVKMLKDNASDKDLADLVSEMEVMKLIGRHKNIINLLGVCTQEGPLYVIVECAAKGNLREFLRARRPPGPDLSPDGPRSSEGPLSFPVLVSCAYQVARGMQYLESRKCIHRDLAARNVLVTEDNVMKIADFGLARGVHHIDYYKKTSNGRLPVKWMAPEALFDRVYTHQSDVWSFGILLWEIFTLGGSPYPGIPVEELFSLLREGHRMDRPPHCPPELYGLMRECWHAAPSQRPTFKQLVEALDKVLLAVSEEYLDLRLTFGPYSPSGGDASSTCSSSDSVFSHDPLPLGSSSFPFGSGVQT", "test": "Kinase inhibition panel", "conditions": "10 μM ATP"}, "[19]": {"target": "FGR (Homo sapiens, UniProt P09769)", "test": "Kinase inhibition panel", "conditions": "10 μM ATP"}, "[20]": {"target": "FLT3 (Homo sapiens, UniProt P36888)", "test": "Kinase inhibition panel", "conditions": "10 μM ATP"}, "[21]": {"target": "FLT4NEGFR3 (Homo sapiens, UniProt P35916)", "test": "Kinase inhibition panel", "conditions": "10 μM ATP"}, "[22]": {"target": "FRK/PTK5 (Homo sapiens, UniProt P42685)", "test": "Kinase inhibition panel", "conditions": "10 μM ATP"}, "[23]": {"target": "LYN (Homo sapiens, UniProt P07948)", "sequence (P07948 whole entry, species assumed)": "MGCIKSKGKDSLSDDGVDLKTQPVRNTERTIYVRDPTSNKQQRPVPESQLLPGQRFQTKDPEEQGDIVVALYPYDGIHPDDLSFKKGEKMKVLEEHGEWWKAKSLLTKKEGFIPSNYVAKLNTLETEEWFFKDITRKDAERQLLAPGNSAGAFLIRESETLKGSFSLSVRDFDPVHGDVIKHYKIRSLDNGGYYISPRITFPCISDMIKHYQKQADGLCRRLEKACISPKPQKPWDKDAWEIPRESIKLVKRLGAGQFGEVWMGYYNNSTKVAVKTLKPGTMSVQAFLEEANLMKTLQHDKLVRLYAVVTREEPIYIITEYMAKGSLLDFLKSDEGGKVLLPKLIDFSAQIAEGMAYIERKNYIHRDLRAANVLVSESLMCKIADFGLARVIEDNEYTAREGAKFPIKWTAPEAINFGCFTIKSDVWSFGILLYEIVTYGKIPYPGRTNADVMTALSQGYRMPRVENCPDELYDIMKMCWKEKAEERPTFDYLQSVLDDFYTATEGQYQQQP", "test": "Kinase inhibition panel", "conditions": "10 μM ATP"}, "[24]": {"target": "PKCmu (Homo sapiens, UniProt Q15139)", "test": "Kinase inhibition panel", "conditions": "10 μM ATP"}, "[25]": {"target": "YES/YES1 (Homo sapiens, UniProt P07947)", "test": "Kinase inhibition panel", "conditions": "10 μM ATP"}, "[26]": {"target": "ZAK/MLTK (Homo sapiens, UniProt Q9NYL2)", "test": "Kinase inhibition panel", "conditions": "10 μM ATP"}}, "data": [{"smiles": "CN1CCN(c2ccc(Nc3ncc4cc(C#N)c(=O)n(C5CCCC5)c4n3)cc2)CC1", "note": "[Compound 12, 8-cyclopentyl-2-((4-(4-methylpiperazin-1-yl)phenyl)amino)-7-oxo-7,8-dihydropyrido[2,3-d]pyrimidine-6-carbonitrile]", "values": [{"measurement": "IC50", "setting": "[1]", "result": 27.3, "unit": "nM"}, {"measurement": "IC50", "setting": "[2]", "result": 91.6, "unit": "nM"}, {"measurement": "IC50", "setting": "[3]", "result": 770, "unit": "nM"}, {"measurement": "IC50", "setting": "[4]", "result": 26.7, "unit": "nM"}, {"measurement": "IC50", "setting": "[5]", "result": 68.2, "unit": "nM"}, {"measurement": "IC50", "setting": "[6]", "result": 124, "unit": "nM"}, {"measurement": "IC50", "setting": "[7]", "result": 1.46, "unit": "nM"}, {"measurement": "IC50", "setting": "[8]", "result": 50.4, "unit": "nM"}, {"measurement": "IC50", "setting": "[9]", "result": 1930, "unit": "nM"}, {"measurement": "IC50", "setting": "[10]", "result": 20.7, "unit": "nM"}, {"measurement": "IC50", "setting": "[11]", "result": 93, "unit": "nM"}, {"measurement": "IC50", "setting": "[12]", "result": 408, "unit": "nM"}, {"measurement": "IC50", "setting": "[13]", "result": 38.7, "unit": "nM"}, {"measurement": "IC50", "setting": "[14]", "result": "> 10000", "unit": "nM"}, {"measurement": "IC50", "setting": "[15]", "result": 114, "unit": "nM"}, {"measurement": "IC50", "setting": "[16]", "result": 130, "unit": "nM"}, {"measurement": "IC50", "setting": "[17]", "result": 54.8, "unit": "nM"}, {"measurement": "IC50", "setting": "[18]", "result": 3550, "unit": "nM"}, {"measurement": "IC50", "setting": "[19]", "result": 112, "unit": "nM"}, {"measurement": "IC50", "setting": "[20]", "result": 13.6, "unit": "nM"}, {"measurement": "IC50", "setting": "[21]", "result": 63.5, "unit": "nM"}, {"measurement": "IC50", "setting": "[22]", "result": 575, "unit": "nM"}, {"measurement": "IC50", "setting": "[23]", "result": 68.5, "unit": "nM"}, {"measurement": "IC50", "setting": "[24]", "result": 142, "unit": "nM"}, {"measurement": "IC50", "setting": "[25]", "result": 38.1, "unit": "nM"}, {"measurement": "IC50", "setting": "[26]", "result": 29.5, "unit": "nM"}]}]}
